{
  "source": "patent US9227977B2",
  "about": "“Phosphoinositide 3-kinase inhibitors” (RESPIVERT LTD., priority 2013, dated 2016)",
  "target": "PI3K γ (Homo sapiens (Human), UniProt P48736)",
  "sequence (P48736 whole entry)": "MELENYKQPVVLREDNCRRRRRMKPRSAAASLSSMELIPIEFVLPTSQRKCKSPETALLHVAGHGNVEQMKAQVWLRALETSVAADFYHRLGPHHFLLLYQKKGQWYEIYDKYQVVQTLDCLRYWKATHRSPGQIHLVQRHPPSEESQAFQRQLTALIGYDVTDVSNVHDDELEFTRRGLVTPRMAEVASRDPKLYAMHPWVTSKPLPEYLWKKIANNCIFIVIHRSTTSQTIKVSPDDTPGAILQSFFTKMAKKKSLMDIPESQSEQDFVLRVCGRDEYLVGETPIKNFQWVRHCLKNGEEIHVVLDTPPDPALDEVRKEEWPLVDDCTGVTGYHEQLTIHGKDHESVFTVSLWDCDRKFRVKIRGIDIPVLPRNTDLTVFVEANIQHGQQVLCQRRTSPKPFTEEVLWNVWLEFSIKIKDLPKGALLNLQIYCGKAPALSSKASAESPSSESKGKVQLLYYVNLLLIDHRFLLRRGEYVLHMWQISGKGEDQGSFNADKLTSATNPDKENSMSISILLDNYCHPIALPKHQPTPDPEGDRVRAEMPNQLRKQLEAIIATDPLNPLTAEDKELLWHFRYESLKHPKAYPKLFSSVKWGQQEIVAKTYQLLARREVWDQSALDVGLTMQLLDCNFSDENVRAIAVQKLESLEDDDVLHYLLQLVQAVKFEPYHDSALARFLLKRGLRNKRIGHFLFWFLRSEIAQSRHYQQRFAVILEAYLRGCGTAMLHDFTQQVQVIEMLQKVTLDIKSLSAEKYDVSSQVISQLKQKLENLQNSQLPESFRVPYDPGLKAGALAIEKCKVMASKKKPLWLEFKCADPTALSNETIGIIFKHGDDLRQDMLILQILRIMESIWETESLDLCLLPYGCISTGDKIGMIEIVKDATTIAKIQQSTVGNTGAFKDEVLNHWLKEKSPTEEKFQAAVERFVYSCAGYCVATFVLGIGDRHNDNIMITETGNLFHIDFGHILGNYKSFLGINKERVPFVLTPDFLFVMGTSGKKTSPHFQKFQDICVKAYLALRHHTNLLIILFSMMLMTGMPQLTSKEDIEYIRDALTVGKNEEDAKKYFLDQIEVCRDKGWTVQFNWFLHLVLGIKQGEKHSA",
  "test": "PI3K γ cell based assay: MCP-1-induced Akt phosphorylation in d-U937 cells",
  "settings": "inhibition of induced Akt phosphorylation, MCP-1 stimulus; read-out: REC50 values in d-U937 cells, MCP-1 stimulus",
  "description": "As a means of assessing the activation of PI3K γ in response to stimuli, the phosphorylation status of the protein, Akt, a downstream product of PI3K γ signalling, was determined following stimulation with MCP-1.\nU937 cells were differentiated to macrophage-type cells by incubation with PMA (100 ng/mL) for 48 to 72 hr. Cells were then pre-incubated with either the test compound or vehicle for 2 hr and were then stimulated briefly with MCP-1 (10 nM, 1 min) and the reaction stopped by replacing the media with 4% formaldehyde solution. […] After washing with buffer (PBS containing 0.1% Triton X-100), cells were incubated with an HRP-conjugated secondary antibody (Dako) and the resultant signal was determined colorimetrically (OD: 450 nm with a reference wavelength of 655 nm) using TMB substrate (substrate reagent pack supplied by R&D Systems, Inc.).\nThis reaction was stopped by addition of 1N H2SO4 solution (100 μL). […] After washing with buffer (PBS containing 0.1% Triton X-100) 1% SDS (100 μL) was added to each well and the plates were shaken lightly for 1 hr prior to measuring the absorbance at 595 nm (Varioskan® Flash, Thermo-Fisher Scientific). The measured OD450-655 readings were corrected for cell number by dividing the OD450-655 by the OD595 readings. The ratio of pAkt signal to total Akt signal was used to quantitate the extent of PI3K γ activation. […]",
  "note": "pEC50: −log10 of the molar value.",
  "data": [
    {"smiles": "COCCOCCOCC#Cc1cccc2nc(Cn3nc(-c4cc(O)cc(F)c4)c4c(N)ncnc43)n(Cc3ccccc3C(F)(F)F)c(=O)c12", "note": "[Compound (I), 2-((4-Amino-3-(3-fluoro-5-hydroxyphenyl)-1H-pyrazolo[3,4-d]pyrimidin-1-yl)methyl)-5-(3-(2-(2-methoxyethoxy)ethoxy)prop-1-yn-1-yl)-3-(2-(trifluoromethyl)benzyl)quinazolin-4(3H)-one]", "values": [
      {"measurement": "pEC50", "value": 7.78}
    ]}
  ]
}
